Experimental data from US5756120A, “Antibiotic formulation and use for drug resistant infections” (NeXstar Pharmaceuticals, Inc., priority 1995, dated 1998).
Several values for one entry are separate records, joined by “and”; a condition that tells them apart may be missing. Equal entries are not always repeated.

Key:
[1] = tested on: MAC (101, type 1); test: MAC infected beige mice, experiment 1 (daily for 5 days), tissue cfu; assay type: in vivo, Beige mice (C57B1/6bg^j /bg^j)
Procedure: (§1) The testing of liposome encapsulated amikacin for the treatment of MAC was performed using a murine model. Beige mice (C57B1/6bg^j /bg^j) were infected with MAC (101, type 1). The mice were infected by injection of 1×10^7 Colony Forming Units (cfu) in the mouse tail vein (i.v.). Three experiments were performed. In the first experiment, 40, 80 and 120 milligrams of amikacin (liposomal and free) per kilogram of mouse body-weight was given i.v. daily for 5 days, beginning 7 days after infection. The animals were sacrificed 5 days after treatment was completed and the liver, lung and spleen tissue were plated. Quantitation of organisms in liver, spleen and lung tissue was performed. The cfu were determined by growth on Middlebrook 7h11 agar plates. Untreated and empty liposomes were used as controls.
The liposomes were prepared as in Example 1. This experiment was performed in two identical parts. The liposomes in the first part were of an average size of 49.8 nm and the average size of the liposomes in the second part were 73.7 nm (mean diameter). The amikacin concentration was either 15.0 mg/ml or 13.21 mg/ml and the total lipid concentration was either 121 mg/ml or 55.7 mg/ml respectively (drug to lipid ratios: 0.123, 0.24). Free drug for all experiments was prepared in the same buffer that the liposomal formulations were contained in.

[2] = tested on: MAC (101, type 1); test: MAC infected beige mice, experiment 2 (three times/week for 21 days), tissue cfu; assay type: in vivo, Beige mice (C57B1/6bg^j /bg^j)
Procedure: as §1
Another experiment was carried out as above (also in two parts) except that the drug therapy was started 5 days after infection. The drug was given i.v. three times/week for 21 days. The mice were sacrificed 1-2 days after the treatment stopped. […] The lung tissues were not tested. Similar controls were used as above. The liposomes were prepared as described in Example 1. The average size of the liposomes was 66.5 nm or 79.6 nm (mean diameter). The concentration of the amikacin was either 15.98 mg/ml or 6.74 mg/ml. The total lipid was measure only the second part of the experiment and it was 27.0 mg/ml (drug to lipid ratio: 1:4.167).

[3] = tested on: MAC (101, type 1); test: MAC infected beige mice, experiment 3 (higher doses), tissue cfu; assay type: in vivo, Beige mice (C57B1/6bg^j /bg^j); details: 120 mg/kg i.v. three times/week for 21 days
Procedure: as §1
Another experiment was carried out as above (also in two parts) except that the drug therapy was started 5 days after infection. The drug was given i.v. three times/week for 21 days. The mice were sacrificed 1-2 days after the treatment stopped. During the treatment period, a group of mice received 40 mg/Kg, 80 mg/kg, and 150 mg/kg of free amikacin and another group received 40 mg/kg, 80 mg/kg, and 160 mg/kg of liposomal amikacin. The lung tissues were not tested. Similar controls were used as above. The liposomes were prepared as described in Example 1. The average size of the liposomes was 66.5 nm or 79.6 nm (mean diameter). The concentration of the amikacin was either 15.98 mg/ml or 6.74 mg/ml. The total lipid was measure only the second part of the experiment and it was 27.0 mg/ml (drug to lipid ratio: 1:4.167).
A third experiment was carried out as in the second experiment except that the mice treated with the liposomal amikacin received 120 mg/kg, 240 mg/kg and 320 mg/kg doses and the mice treated with the free amikacin received only 120 mg/kg doses. The liposomes were prepared as in Example 2 where the average size of the liposomes were 81.8 nm (median diameter). The amikacin concentration was 32.02 mg/ml and the total lipid concentration was 91.5 mg/ml (drug to lipid ratio: 1:2.941).

[4] = tested on: Pseudomonas aeruginosa; test: Efficacy and toxicity in Pseudomonas infected mice (mortality); assay type: in vivo, CF-1 mice; details: two doses
Procedure: The efficacy and toxicity of liposomal amikacin in Pseudomonas infected mice was tested. CF-1 mice were used (females, 6-8 weeks old). The mice were obtained from Jackson Labs. A clinical isolate of Pseudomonas aeruginosa was obtained on a Mueller Hinton/MacConkey blood agar plate. The organisms were transferred to a Mueller Hinton plate and grown for 24 hours. Colonies were transferred to saline and grown for 48 hours. The samples were frozen in saline containing 15% fetal calf serum at 1×10^8 organisms/ml (MacFarland Standard). The colonies were stored at -70° C. The colonies were thawed and grown in a Mueller Hinton plate for 24 hours. The bacteria were adjusted to 8×10^6 organisms/ml in saline containing talc (62.5 mg/ml) and 1 ml was injected intraperitoneal. A culture of inoculum on MH agar for 24 hours determined that approximately 7×10^6 cfu were delivered per mouse. Liposomal amikacin and empty liposomes were prepared as set out in Example 2. […] The lipid concentration was 95.31 mg/ml and the amikacin concentration was 23.54 mg/ml (0.25 drug/lipid ratio). The pH of the solution containing the formulation was 7.31. […] The concentration of the free amikacin solution was 23.54 mg/ml. The pH of the solution containing the liposomes was 7.33.
Mice were treated with 40 mg/kg (drug per body-weight), 80 mg/kg, 120 mg/kg and 240 mg/kg of liposomal amikacin. Mice were also treated with 40 mg/kg, 80 mg/kg, and 120 mg/kg of free amikacin. The drugs were administered intravenously in the caudal vein. Two doses were given; one at four hours after infection and one at twenty-four hours after infection.

[5] = assay type: in vivo, mouse (C57B1/6); details: 100 mg/kg i.v.; 6 hours
Procedure: Amidacin content was measured in mouse (C57B1/6, females 2-3 months old) plasma after injection (i.v.) of free amikacin or liposomal amikacin (100 mg/kg). Liposomal amikacin was prepared as described in Example 2. Blood samples were obtained at various time intervals. The samples were collected by removing 100 microliters of blood, retroorbitally, from nonanesthetized mice. The samples were collected in heparinized capillary pipets which were plugged with modeling clay. The samples were centrifuged at 3250 rpm (20 cm rotor) for 10 minutes. The samples were analyzed using a radioimmunoassay (Diagnostic Products). The liposomal amikacin formulation contained liposomes with an average size of 43.6 nm (median diameter). The amikacin concentration was 10.09 mg/ml and the total lipid concentration was 56.8 mg/ml (drug to lipid ratio 1:5.556).

[6] = tested on: M. tuberculosis drug susceptible strain H37RV; test: Intracellular activity against drug susceptible M. tuberculosis (H37RV) in human monocyte derived macrophages; assay type: cell-based; details: for CFU (1 × 10^3): duplicate values
[7] = tested on: Mycobacterium tuberculosis; details: background statement; cited from earlier work
[8] = 150 mg/kg; known in the art; cited from earlier work
[9] = 120 mg/kg i.v. daily for 5 days
[10] = 40 mg/kg i.v. three times/week for 21 days
[11] = 80 mg/kg i.v. three times/week for 21 days
[12] = 120 mg/kg i.v. three times/week for 21 days

SMILES: NCC[C@H](O)C(=O)N[C@@H]1C[C@H](N)[C@@H](O[C@H]2O[C@H](CN)[C@@H](O)[C@H](O)[C@H]2O)[C@H](O)[C@H]1O[C@H]1O[C@H](CO)[C@@H](O)[C@H](N)[C@H]1O [amikacin]
- Liver cfu/g ([1]; 40 mg/kg i.v. daily for 5 days): 1.41 × 10^8 cfu/g
- Liver log cfu/g ([1]; 40 mg/kg i.v. daily for 5 days): 8.15 log cfu/g
- Spleen cfu/g ([1]; 40 mg/kg i.v. daily for 5 days): 4.08 × 10^8 cfu/g
- Spleen log cfu/g ([1]; 40 mg/kg i.v. daily for 5 days): 8.61 log cfu/g
- lung cfu/gram ([1]; 40 mg/kg i.v. daily for 5 days): 1.44×10^6 cfu/gram
- lung log ([1]; 40 mg/kg i.v. daily for 5 days): 6.16 log
- Liver cfu/g ([1]; 80 mg/kg i.v. daily for 5 days): 7.79 × 10^7 cfu/g
- Liver log cfu/g ([1]; 80 mg/kg i.v. daily for 5 days): 7.89 log cfu/g
- Spleen cfu/g ([1]; 80 mg/kg i.v. daily for 5 days): 4.82 × 10^8 cfu/g
- Spleen log cfu/g ([1]; 80 mg/kg i.v. daily for 5 days): 8.68 log cfu/g
- lung cfu/gram ([1]; 80 mg/kg i.v. daily for 5 days): 1.29×10^6 cfu/gram
- lung log ([1]; 80 mg/kg i.v. daily for 5 days): 6.11 log
- Liver cfu/g [1, 9]: 5.65 × 10^7 cfu/g
- Liver log cfu/g [1, 9]: 7.75 log cfu/g
- Spleen cfu/g [1, 9]: 3.46 × 10^8 cfu/g
- Spleen log cfu/g [1, 9]: 8.54 log cfu/g
- lung cfu/gram [1, 9]: 9.94×10^5 cfu/gram
- lung log [1, 9]: 6.00 log
- Liver cfu/g [2, 10]: 1.09 × 10^8 cfu/g
- Liver log cfu [2, 10]: 8.04 log cfu
- Spleen cfu/g [2, 10]: 5.76 × 10^8 cfu/g
- Spleen log cfu [2, 10]: 8.76 log cfu
- Liver cfu/g [2, 11]: 3.67 × 10^7 cfu/g
- Liver log cfu [2, 11]: 7.56 log cfu
- Spleen cfu/g [2, 11]: 2.02 × 10^8 cfu/g
- Spleen log cfu [2, 11]: 8.31 log cfu
- Liver cfu/g [2, 12]: 3.15 × 10^7 cfu/g
- Liver log cfu [2, 12]: 7.50 log cfu
- Spleen cfu/g [2, 12]: 1.48 × 10^8 cfu/g
- Spleen log cfu [2, 12]: 8.17 log cfu
- Liver cfu/g [3]: 6.10 × 10^7 cfu/g
- Liver log cfu/g [3]: 7.78 log cfu/g
- Spleen cfu/g [3]: 2.13 × 10^8 cfu/g
- Spleen log cfu/g [3]: 8.33 log cfu/g
- Mortality % ([4]; 40 mg/kg i.v.): 25%
- Mortality ([4]; 40 mg/kg i.v., 24 hours post infection): 1/4
- Mortality ([4]; 40 mg/kg i.v., 30 hours post infection): 1/4
- Mortality ([4]; 40 mg/kg i.v., 48 hours post infection): 1/4
- Mortality ([4]; 40 mg/kg i.v., 72 hours post infection): 1/4
- Mortality % ([4]; 80 mg/kg i.v.): 0%
- Mortality ([4]; 80 mg/kg i.v., 24 hours post infection): 0/6
- Mortality ([4]; 80 mg/kg i.v., 30 hours post infection): 0/6
- Mortality ([4]; 80 mg/kg i.v., 48 hours post infection): 0/6
- Mortality ([4]; 80 mg/kg i.v., 72 hours post infection): 0/6
- Mortality % ([4]; 120 mg/kg i.v.): 0%
- Mortality ([4]; 120 mg/kg i.v., 24 hours post infection): 0/6
- Mortality ([4]; 120 mg/kg i.v., 30 hours post infection): 0/6
- Mortality ([4]; 120 mg/kg i.v., 48 hours post infection): 0/6
- Mortality ([4]; 120 mg/kg i.v., 72 hours post infection): 0/6
- Average Concentration (plasma amikacin) [5]: none detected
- inhibition or killing of drug susceptible M. tuberculosis ([6]; 1 μg/ml): inhibited the growth of the bacteria
- Avg. log CFU ([6]; 1 μg/ml, day 4): 4.7 log CFU
- CFU (1 × 10^3) ([6]; 1 μg/ml, day 4): 50 1 × 10^3 CFU and 60 1 × 10^3 CFU
- Avg. log CFU ([6]; 1 μg/ml, day 7): 5.9 log CFU
- CFU (1 × 10^3) ([6]; 1 μg/ml, day 7): 900 1 × 10^3 CFU and 800 1 × 10^3 CFU
- inhibition or killing of drug susceptible M. tuberculosis ([6]; 2 μg/ml): inhibition
- Avg. log CFU ([6]; 2 μg/ml, day 4): 4.3 log CFU
- CFU (1 × 10^3) ([6]; 2 μg/ml, day 4): 20 1 × 10^3 CFU
- Avg. log CFU ([6]; 2 μg/ml, day 7): 4.7 log CFU
- CFU (1 × 10^3) ([6]; 2 μg/ml, day 7): 40 1 × 10^3 CFU and 50 1 × 10^3 CFU
- Avg. log CFU ([6]; 4 μg/ml, day 4): 3.7 log CFU
- inhibition or killing of drug susceptible M. tuberculosis ([6]; 4 μg/ml, day 4): obtained killing at day 4
- CFU (1 × 10^3) ([6]; 4 μg/ml, day 4): 4 1 × 10^3 CFU
- Avg. log CFU ([6]; 4 μg/ml, day 7): 3.4 log CFU
- CFU (1 × 10^3) ([6]; 4 μg/ml, day 7): 1.5 1 × 10^3 CFU and 3 1 × 10^3 CFU
- effectiveness against Mycobacterium tuberculosis [7]: effective
- lethality in mice [8]: will kill many of the mice injected
